Measurements as given in PubChem BioAssay AID2060605 (Molecular Pharmacology Branch, DTP, NCI, 2025).

System: 947758-054-R-J2-PDC spheroid growth, percent test/control
Experiment: Anticancer human tumor 947758-054-R-J2-PDC patient-derived colon adenocarcinoma cell line growth inhibition [CLK]
Settings: spheroids with HUVEC and MSC; for IC50: curve of first compound; for viability, T/C: stronger effect = lower value
In short: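 Patient-derived tumor cells grown as complex spheroids with HUVEC endothelial cells and mesenchymal stem cells, treated with drug combinations. Concentrations descend in half-log steps from near clinical Cmax, or from 10 microM if Cmax unknown.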

[1] = second compound 0.0316 µM, first compound 0.0316 µM
[2] = second compound 0.0316 µM, first compound 0.1 µM
[3] = second compound 0.0316 µM, first compound 0.316 µM
[4] = second compound 0.0316 µM, first compound 1 µM
[5] = second compound 0.1 µM, first compound 0.0316 µM
[6] = second compound 0.1 µM, first compound 0.1 µM
[7] = second compound 0.1 µM, first compound 0.316 µM
[8] = second compound 0.1 µM, first compound 1 µM
[9] = second compound 0.316 µM, first compound 0.0316 µM
[10] = second compound 0.316 µM, first compound 0.1 µM
[11] = second compound 0.316 µM, first compound 0.316 µM
[12] = second compound 0.316 µM, first compound 1 µM
[13] = second compound 1 µM, first compound 0.0316 µM
[14] = second compound 1 µM, first compound 0.1 µM
[15] = second compound 1 µM, first compound 0.316 µM
[16] = second compound 1 µM, first compound 1 µM
[17] = second compound 3.16 µM, first compound 0.0316 µM
[18] = second compound 3.16 µM, first compound 0.1 µM
[19] = second compound 3.16 µM, first compound 0.316 µM
[20] = second compound 3.16 µM, first compound 1 µM
[21] = second compound 10 µM, first compound 0.0316 µM
[22] = second compound 10 µM, first compound 0.1 µM
[23] = second compound 10 µM, first compound 0.316 µM
[24] = second compound 10 µM, first compound 1 µM
[25] = second compound 0.0316 µM, first compound 0.00316 µM
[26] = second compound 0.0316 µM, first compound 0.01 µM
[27] = second compound 0.1 µM, first compound 0.00316 µM
[28] = second compound 0.1 µM, first compound 0.01 µM
[29] = second compound 0.316 µM, first compound 0.00316 µM
[30] = second compound 0.316 µM, first compound 0.01 µM
[31] = second compound 1 µM, first compound 0.00316 µM
[32] = second compound 1 µM, first compound 0.01 µM
[33] = second compound 3.16 µM, first compound 0.00316 µM
[34] = second compound 3.16 µM, first compound 0.01 µM
[35] = second compound 10 µM, first compound 0.00316 µM
[36] = second compound 10 µM, first compound 0.01 µM
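Further: spheroids exposed to compounds for one week before readout.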
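Wherever viability, T/C is given: 100% = DMSO vehicle control wells.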

## CC(Nc1ccc2c(c1)OCCn1cc(N3C(=O)OCC3C(F)F)nc1-2)C(N)=O (stereo unspecified) + CN1CCN(c2cc(C(=O)Nc3cc4cc(-c5cnn(C)c5)ccc4cn3)ccn2)CC1
Second compound 0.0316 µM
  IC50: > 10000 nM
Second compound 0.1 µM
  IC50: 297 nM
Second compound 0.316 µM
  IC50: < 31.6 nM
Second compound 1 µM
  IC50: < 31.6 nM
Second compound 3.16 µM
  IC50: < 31.6 nM
Second compound 10 µM
  IC50: < 31.6 nM
[1]
  viability, T/C: 138%
[2]
  viability, T/C: 153%
[3]
  viability, T/C: 137%
[4]
  viability, T/C: 88.2%
Second compound 0.0316 µM, first compound 3.16 µM
  viability, T/C: 94.5%
Second compound 0.0316 µM, first compound 10 µM
  viability, T/C: 74.2%
[5]
  viability, T/C: 165%
[6]
  viability, T/C: 127%
[7]
  viability, T/C: 45.4%
[8]
  viability, T/C: 39.6%
Second compound 0.1 µM, first compound 3.16 µM
  viability, T/C: 44.5%
Second compound 0.1 µM, first compound 10 µM
  viability, T/C: 29.6%
[9]
  viability, T/C: 5.46%
[10]
  viability, T/C: 4.48%
[11]
  viability, T/C: 4.7%
[12]
  viability, T/C: 3.14%
Second compound 0.316 µM, first compound 3.16 µM
  viability, T/C: 3.86%
Second compound 0.316 µM, first compound 10 µM
  viability, T/C: 1.64%
[13]
  viability, T/C: 0.13%
[14]
  viability, T/C: 0.18%
[15]
  viability, T/C: 0.13%
[16]
  viability, T/C: 0.11%
Second compound 1 µM, first compound 3.16 µM
  viability, T/C: 0.11%
Second compound 1 µM, first compound 10 µM
  viability, T/C: 0.2%
[17]
  viability, T/C: 0.24%
[18]
  viability, T/C: 0.19%
[19]
  viability, T/C: 0.25%
[20]
  viability, T/C: 0.22%
Second compound 3.16 µM, first compound 3.16 µM
  viability, T/C: 0.31%
Second compound 3.16 µM, first compound 10 µM
  viability, T/C: 0.26%
[21]
  viability, T/C: 0.35%
[22]
  viability, T/C: 0.5%
[23]
  viability, T/C: 0.84%
[24]
  viability, T/C: 0.31%
Second compound 10 µM, first compound 3.16 µM
  viability, T/C: 1.57%
Second compound 10 µM, first compound 10 µM
  viability, T/C: 0.63%

## CCN1CCN(Cc2ccc(Nc3ncc(F)c(-c4cc(F)c5nc(C)n(C(C)C)c5c4)n3)nc2)CC1 + CN1CCN(c2cc(C(=O)Nc3cc4cc(-c5cnn(C)c5)ccc4cn3)ccn2)CC1
Second compound 0.0316 µM
  IC50: > 1000 nM
Second compound 0.1 µM
  IC50: 461 nM
Second compound 0.316 µM
  IC50: < 3.16 nM
Second compound 1 µM
  IC50: < 3.16 nM
Second compound 3.16 µM
  IC50: < 3.16 nM
Second compound 10 µM
  IC50: < 3.16 nM
[25]
  viability, T/C: 145%
[26]
  viability, T/C: 133%
[1]
  viability, T/C: 176%
[2]
  viability, T/C: 245%
[3]
  viability, T/C: 98.2%
[4]
  viability, T/C: 46.5%
[27]
  viability, T/C: 134%
[28]
  viability, T/C: 141%
[5]
  viability, T/C: 105%
[6]
  viability, T/C: 108%
[7]
  viability, T/C: 52.7%
[8]
  viability, T/C: 32.8%
[29]
  viability, T/C: 4.74%
[30]
  viability, T/C: 7.5%
[9]
  viability, T/C: 5.93%
[10]
  viability, T/C: 9.21%
[11]
  viability, T/C: 14.7%
[12]
  viability, T/C: 13.2%
[31]
  viability, T/C: 0.18%
[32]
  viability, T/C: 2.83%
[13]
  viability, T/C: 0.19%
[14]
  viability, T/C: 0.19%
[15]
  viability, T/C: 0.18%
[16]
  viability, T/C: 2.66%
[33]
  viability, T/C: 0.83%
[34]
  viability, T/C: 0.69%
[17]
  viability, T/C: 0.21%
[18]
  viability, T/C: 0.28%
[19]
  viability, T/C: 2.63%
[20]
  viability, T/C: 3.69%
[35]
  viability, T/C: 0.27%
[36]
  viability, T/C: 1.7%
[21]
  viability, T/C: 0.31%
[22]
  viability, T/C: 0.4%
[23]
  viability, T/C: 0.75%
[24]
  viability, T/C: 2.67%

## COc1c(OCCCN2CCOCC2)ccc2c3n(c(=NC(=O)c4cnc(N)nc4)nc12)CCN3 + CN1CCN(c2cc(C(=O)Nc3cc4cc(-c5cnn(C)c5)ccc4cn3)ccn2)CC1
Second compound 0.0316 µM
  IC50: 184 nM
Second compound 0.1 µM
  IC50: 29 nM
Second compound 0.316 µM
  IC50: < 3.16 nM
Second compound 1 µM
  IC50: < 3.16 nM
Second compound 3.16 µM
  IC50: < 3.16 nM
Second compound 10 µM
  IC50: < 3.16 nM
[25]
  viability, T/C: 157%
[26]
  viability, T/C: 133%
[1]
  viability, T/C: 90.8%
[2]
  viability, T/C: 75.6%
[3]
  viability, T/C: 28.7%
[4]
  viability, T/C: 18.1%
[27]
  viability, T/C: 188%
[28]
  viability, T/C: 147%
[5]
  viability, T/C: 40.3%
[6]
  viability, T/C: 33.4%
[7]
  viability, T/C: 17.9%
[8]
  viability, T/C: 10%
[29]
  viability, T/C: 7.04%
[30]
  viability, T/C: 6.09%
[9]
  viability, T/C: 3.95%
[10]
  viability, T/C: 2.44%
[11]
  viability, T/C: 0.75%
[12]
  viability, T/C: 1%
[31]
  viability, T/C: 0.16%
[32]
  viability, T/C: 0.18%
[13]
  viability, T/C: 0.15%
[14]
  viability, T/C: 0.1%
[15]
  viability, T/C: 1.96%
[16]
  viability, T/C: 1.55%
[33]
  viability, T/C: 0.48%
[34]
  viability, T/C: 0.95%
[17]
  viability, T/C: 0.19%
[18]
  viability, T/C: 0.15%
[19]
  viability, T/C: 1.63%
[20]
  viability, T/C: 2.02%
[35]
  viability, T/C: 0.31%
[36]
  viability, T/C: 3.4%
[21]
  viability, T/C: 0.32%
[22]
  viability, T/C: 0.27%
[23]
  viability, T/C: 1.44%
[24]
  viability, T/C: 1.28%
